What was measured:
Assay type in all cases: cell-based
[1] = Displacement of 2-[125I]-iodomelatonin from human MT1 receptor expressed in CHO cells by Gamma counting
[2] = Displacement of 2-[125I]-iodomelatonin from human MT2 receptor expressed in CHO cells by Gamma counting
HEK-293T [3] = assay: Binding affinity to Rluc-tagged MT1/YFP-tagged MT1 (unknown origin) transfected in HEK293T cells assessed as bioluminescence resonance energy transfer ratio at 10 uM after 10 mins by lumino/fluorometer (reference value: 0.092 +/- 0.007); conditions: Homo sapiens
HEK-293T [4] = assay: Binding affinity to Rluc-tagged MT1/YFP-tagged MT2 (unknown origin) transfected in HEK293T cells assessed as bioluminescence resonance energy transfer ratio at 10 uM after 10 mins by lumino/fluorometer (reference value: 0.254 +/- 0.035); conditions: Homo sapiens
HEK-293T [5] = assay: Binding affinity to Rluc-tagged MT2/YFP-tagged MT2 (unknown origin) transfected in HEK293T cells assessed as bioluminescence resonance energy transfer ratio at 10 uM after 10 mins by lumino/fluorometer (reference value: 1.468 +/- 0.560); conditions: Homo sapiens
HEK-293T [6] = assay: Binding affinity to Rluc-tagged MT2/YFP-tagged MT1 (unknown origin) transfected in HEK293T cells assessed as bioluminescence resonance energy transfer ratio at 10 uM after 10 mins by lumino/fluorometer (reference value: 2.300 +/- 0.777); conditions: Homo sapiens

| SMILES | pKi [1] | pKi [2] | Ratio (HEK-293T [3]) | Ratio (HEK-293T [4]) | Ratio (HEK-293T [5]) | Ratio (HEK-293T [6]) |
| --- | --- | --- | --- | --- | --- | --- |
| COc1ccc2c(c1)c(CCNC(C)=O)cn2CC(=O)NCCCCCCCCCNC(=O)Cn1cc(CCNC(C)=O)c2cc(OC)ccc21 | 4.83 | 4.93 | – | – | – | – |
| COc1ccc2c(c1)c(CCNC(C)=O)cn2CCCCC(=O)NCCCCCCCCCCCCNC(=O)CCCCn1cc(CCNC(C)=O)c2cc(OC)ccc21 | 6.08 | 6.67 | 0.062 | 0.2 | 1.15 | 6.81 |
| CCCCCCNC(=O)CCCCn1cc(CCNC(C)=O)c2cc(OC)ccc21 | 5.79 | 6.41 | – | – | – | – |
| COc1ccc2c(c1)c(CCNC(C)=O)cn2CC(=O)NCCCCCCCCCCCNC(=O)Cn1cc(CCNC(C)=O)c2cc(OC)ccc21 | 5.12 | 6.53 | – | – | – | – |
| COc1ccc2c(c1)c(CCNC(C)=O)cn2CCCCC(=O)NCCCCCCCNC(=O)CCCCn1cc(CCNC(C)=O)c2cc(OC)ccc21 | 6.24 | 5.93 | – | – | – | – |
| COc1ccc2c(c1)c(CCNC(C)=O)cn2CC(=O)NCCCCCCCCCCNC(=O)Cn1cc(CCNC(C)=O)c2cc(OC)ccc21 | 6.37 | 7.34 | – | – | – | – |
| COc1ccc2c(c1)c(CCNC(C)=O)cn2CC(=O)NCCCCCCCCCCCCNC(=O)Cn1cc(CCNC(C)=O)c2cc(OC)ccc21 | 6.47 | 7.02 | – | – | – | – |
| COc1ccc2c(c1)c(CCNC(C)=O)cn2CCCCC(=O)NCCCCCCCCNC(=O)CCCCn1cc(CCNC(C)=O)c2cc(OC)ccc21 | 6.17 | 6.74 | – | – | – | – |
| COc1ccc2c(c1)c(CCNC(C)=O)cn2CCCCC(=O)NCCCCCCCCCNC(=O)CCCCn1cc(CCNC(C)=O)c2cc(OC)ccc21 | 6.23 | 6.79 | – | – | – | – |
| COc1ccc2c(c1)c(CCNC(C)=O)cn2CCCCC(=O)NCCCCCCCCCCNC(=O)CCCCn1cc(CCNC(C)=O)c2cc(OC)ccc21 | 6.33 | 6.62 | 0.098 | 0.223 | 1.39 | 9.28 |
| COc1ccc2c(c1)c(CCNC(C)=O)cn2CCCCC(=O)NCCCCCCNC(=O)CCCCn1cc(CCNC(C)=O)c2cc(OC)ccc21 | 5.64 | 5.9 | – | – | – | – |
| COc1ccc2c(c1)c(CCNC(C)=O)cn2CCCCC(=O)NCCCCCCCCCCCNC(=O)CCCCn1cc(CCNC(C)=O)c2cc(OC)ccc21 | 6.11 | 6.54 | 0.078 | 0.217 | 0.901 | 10.1 |

From ChEMBL document CHEMBL3580540, “N1-linked melatonin dimers as bivalent ligands targeting dimeric melatonin receptors” (Medchemcomm, 2014)
